This data set is described as follows: Plasma and urine pharmacokinetics after TP300 infusion (LC-MS/MS, non-compartmental). The data set is classed as in vivo, human. The settings on record: for concentration at 1 h: human, in vivo, read-out: Plasma TP300 concentration 1 h after administration, mean. On the procedure:
Venous blood (3 mL) was taken into sodium heparin tubes containing 30 μL of 46% citric acid, centrifuged 1500g at 4°C for 10 min and 1 mol/L hydrochloric acid was added (1:10) to plasma from each subject at 10 time points during cycle 1 (pre dose, then 1, 1.25, 1.5, 2, 3, 5, 8, 24, 48 hours after the start of administration) and stored at −70°C. Samples were processed by extraction of protein using addition of organic solvent containing internal standards and assayed by LC-MS/MS with a robust, sensitive and validated method for the simultaneous determination of a novel topoisomerase 1 inhibitor CH0793076 (TP3076), the prodrug CH4556300 (TP300), and the active metabolite CH0793011 (TP3011). All plasma had been acidified during collection to avoid the pH-based degradation of TP300 and to shift the equilibria of TP3076 and TP3011 between the lactone and carboxylate forms towards the lactone forms. After the plasma proteins were precipitated with methanol:acetonitrile:HCl 1M (50:50:1, v:v:v) containing stable isotopic internal standards, the analytes were trapped on an Xterra MS C18 column (10×2.1 mm i.d., 5 μm) and separated on a Gemini C18 column (50×2.0 mm i.d., 5 μm) using column-switching liquid chromatography. Electrospray ionization in the positive-ion mode and multiple reaction monitoring were used to quantify the analytes with transitions m/z 587.2>441.2 for TP300, 459.1>415.2 for 3076, and 475.1>361.1 for 3011. The inter- and intra-day precisions were below 12%, and the accuracy was between −16% and 16% at the lower limit of quantitation (LLOQ) and between −11% and 14% at the other quality controls. The LLOQs of TP300, TP3076, and TP3011 were 0.8, 0.04, and 0.04 ng/mL, respectively.
Pharmacokinetic parameters derived from plasma concentration-time data of TP3076 or TP3011 by non-compartmental methods using WinNonlin (version 5.1; Pharsight Corp), included maximal plasma concentration (Cmax) and time of Cmax (Tmax), apparent plasma elimination half-life (t1/2), and the area under the curve (AUC). The urinary excretion ratio (fe) of TP3076 and TP3011 was calculated from the urinary concentration and volume up to 48 hours after administration, and the administration dose. The linearity of Cmax and AUC was determined with linear regression, analysis of variance and power model analysis. The sum of the AUCs of TP3076 and TP3011 was plotted against percentage (%) fall in nadir neutrophil count to explore the relationship between exposure and myelosuppression as a measure of anti-proliferative effect and a sigmoid Emax model fitted to the data: […]

Each structure is given as a SMILES string. Where two headings read alike, the source gives them in different places.

Regarding `CCCCCN1C=Nc2cccc3nc4c(c1c23)Cn1c-4cc2c(c1=O)COC(=O)[C@@]2(CC)OC(=O)CN(C)C(=O)CN` [TP300, glycine,glycyl-N-methyl-,(9S)-9-ethyl-9,10,13,15-tetrahydro-10,13-dioxo-1-pentyl-1H,12H-pyrano[3'',4'':6′,7′]indolizino[2′,1′:5,6]pyrido[4,3,2-de]quinazolin-9-yl ester, hydro-chloride], where the note is “all doses, LLOQ of TP300 0.8 ng/mL”, the “measured plasma concentrations 1.5 h after dose” value was “below the limit of the quantification”. For the same molecule, the concentration at 1 h runs as follows: (TP300 2 mg/m^2) 3.48 ng/mL; (TP300 8 mg/m^2) 2.34 ng/mL; (TP300 10 mg/m^2) 7.37 ng/mL; (TP300 12 mg/m^2) 18.4 ng/mL.

For the origin of these results see publication PMC3517777, “Phase I study of TP300 in patients with advanced solid tumors with pharmacokinetic, pharmacogenetic and pharmacodynamic analyses” (BMC Cancer, 2012).
